Measured values: patent US9738634B2, “Heterocyclic amide compound and herbicide” (SYNGENTA PARTICIPATIONS AG, priority 2013, dated 2017)

Tests used:
Format in all cases: in vivo
Conditions in all cases: treatment dosage 320 g/ha
[1] = test system: bulrush; test: Test Example 1: weedkilling efficacy, preemergent weed treatment in the submerged state; B: bulrush
In short: (§1)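 Visual scores against set criteria were taken 3 weeks after treatment. Compounds, as diluted emulsions at specified g/ha, went onto the water surface of 4 cm-flooded alluvial soil pots on the day weeds were sown and 2.5-leaf rice was transplanted; greenhouse held 25–30 °C.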

[2] = test system: transplanted rice; test: Test Example 1: preemergent weed treatment in the submerged state, effect on crop; a: transplanted rice
In short: as §1

[3] = test system: Italian ryegrass; test: Test Example 4: weedkilling efficacy by foliar treatment; I: Italian ryegrass
In short: (§2)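 Seeds are spot-sown into sterilized diluvial soil and covered with about 1.5 cm of soil. After 14 days' greenhouse growth at 25 to 30° C, plants are sprayed on stems and leaves with diluted emulsion at the stated g/ha rate, then scored at 3 weeks.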

[4] = test system: oval-leafed pondweed; test: Test Example 2: weedkilling efficacy, growth period weed treatment in the submerged state; C: oval-leafed pondweed
In short: (§3)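 Barnyard grass, bulrush and oval-leafed pondweed sown in alluvial soil under 4 cm flooding, greenhouse 25 to 30° C. At 1-2 leaf stage, water-diluted emulsion applied to the water surface at stated g/ha dosages; effects scored 3 weeks later.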

[5] = test system: crabgrass; test: Test Example 3: weedkilling efficacy through soil treatment; D: crabgrass
In short: (§4)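 Crop and weed responses were judged three weeks after a uniform surface spray of the water-diluted emulsion at the given g/ha rate. Seeds sat beneath about 1.5 cm of sterilized diluvial soil, and boxes stood in a greenhouse at 25 to 30° C.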

[6] = test system: wheat; test: Test Example 3: soil treatment, effect on crop; e: wheat
In short: as §4

[7] = test system: bulrush; test: Test Example 2: weedkilling efficacy, growth period weed treatment in the submerged state; B: bulrush
In short: as §3

[8] = test system: barnyard grass; test: Test Example 4: weedkilling efficacy by foliar treatment; F: barnyard grass
In short: as §2

[9] = test system: green foxtail; test: Test Example 4: weedkilling efficacy by foliar treatment; E: green foxtail
In short: as §2

[10] = test system: catchweed; test: Test Example 4: weedkilling efficacy by foliar treatment; O: catchweed
In short: as §2

[11] = test system: wild oat; test: Test Example 3: weedkilling efficacy through soil treatment; G: wild oat
In short: as §4

[12] = test system: Indian mallow; test: Test Example 4: weedkilling efficacy by foliar treatment; K: Indian mallow
In short: as §2

[13] = test system: black-grass; test: Test Example 3: weedkilling efficacy through soil treatment; H: black-grass
In short: as §4

[14] = test system: redroot pigweed; test: Test Example 4: weedkilling efficacy by foliar treatment; L: redroot pigweed
In short: as §2

[15] = test system: fig-leafed goosefoot; test: Test Example 4: weedkilling efficacy by foliar treatment; M: fig-leafed goosefoot
In short: as §2

[16] = test system: redroot pigweed; test: Test Example 3: weedkilling efficacy through soil treatment; L: redroot pigweed
In short: as §4

[17] = test system: green foxtail; test: Test Example 3: weedkilling efficacy through soil treatment; E: green foxtail
In short: as §4

[18] = test system: directly sown rice; test: Test Example 4: foliar treatment, effect on crop; b: directly sown rice
In short: as §2

[19] = test system: black-grass; test: Test Example 4: weedkilling efficacy by foliar treatment; H: black-grass
In short: as §2

[20] = test system: chickweed; test: Test Example 4: weedkilling efficacy by foliar treatment; N: chickweed
In short: as §2

[21] = test system: birds-eye speedwell; test: Test Example 4: weedkilling efficacy by foliar treatment; p: birds-eye speedwell
In short: as §2

[22] = test system: Italian ryegrass; test: Test Example 3: weedkilling efficacy through soil treatment; I: Italian ryegrass
In short: as §4

[23] = test system: barnyard grass; test: Test Example 2: weedkilling efficacy, growth period weed treatment in the submerged state; A: barnyard grass
In short: as §3

[24] = test system: beet; test: Test Example 4: foliar treatment, effect on crop; f: beet
In short: as §2

[25] = test system: rapeseed; test: Test Example 3: soil treatment, effect on crop; g: rapeseed
In short: as §4

[26] = test system: Indian mallow; test: Test Example 3: weedkilling efficacy through soil treatment; K: Indian mallow
In short: as §4

[27] = test system: fig-leafed goosefoot; test: Test Example 3: weedkilling efficacy through soil treatment; M: fig-leafed goosefoot
In short: as §4

[28] = test system: soybean; test: Test Example 4: foliar treatment, effect on crop; d: soybean
In short: as §2

[29] = test system: birds-eye speedwell; test: Test Example 3: weedkilling efficacy through soil treatment; p: birds-eye speedwell
In short: as §4

[30] = test system: corn; test: Test Example 3: soil treatment, effect on crop; c: corn
In short: as §4

[31] = test system: wild oat; test: Test Example 4: weedkilling efficacy by foliar treatment; G: wild oat
In short: as §2

[32] = test system: beet; test: Test Example 3: soil treatment, effect on crop; f: beet
In short: as §4

[33] = test system: barnyard grass; test: Test Example 3: weedkilling efficacy through soil treatment; F: barnyard grass
In short: as §4

[34] = test system: soybean; test: Test Example 3: soil treatment, effect on crop; d: soybean
In short: as §4

[35] = test system: corn; test: Test Example 4: foliar treatment, effect on crop; c: corn
In short: as §2

[36] = test system: chickweed; test: Test Example 3: weedkilling efficacy through soil treatment; N: chickweed
In short: as §4

[37] = test system: crabgrass; test: Test Example 4: weedkilling efficacy by foliar treatment; D: crabgrass
In short: as §2

[38] = test system: common wind-grass; test: Test Example 3: weedkilling efficacy through soil treatment; J: common wind-grass
In short: as §4

[39] = test system: barnyard grass; test: Test Example 1: weedkilling efficacy, preemergent weed treatment in the submerged state; A: barnyard grass
In short: as §1

[40] = test system: oval-leafed pondweed; test: Test Example 1: weedkilling efficacy, preemergent weed treatment in the submerged state; C: oval-leafed pondweed
In short: as §1

[41] = test system: common wind-grass; test: Test Example 4: weedkilling efficacy by foliar treatment; J: common wind-grass
In short: as §2

[42] = test system: directly sown rice; test: Test Example 3: soil treatment, effect on crop; b: directly sown rice
In short: as §4

[43] = test system: wheat; test: Test Example 4: foliar treatment, effect on crop; e: wheat
In short: as §2

[44] = test system: rapeseed; test: Test Example 4: foliar treatment, effect on crop; g: rapeseed
In short: as §2

COc1cc(C(F)(F)F)cc(NC(=O)C(C)(C)N2COC(C)=C(c3ccccc3)C2=O)n1 [B-2-49]
B (bulrush) weedkilling efficacy grade [1]: 5 (weed kill ratio 90% or more, (practically complete withering)) | a (transplanted rice) effect on crop grade [2]: 3 (weed kill ratio 40% or more, less than 70%) | I (Italian ryegrass) weedkilling efficacy grade [3]: 1 (weed kill ratio 5% or more, less than 20%) | C (oval-leafed pondweed) weedkilling efficacy grade [4]: 5 (weed kill ratio 90% or more, (practically complete withering)) | D (crabgrass) weedkilling efficacy grade [5]: 5 (weed kill ratio 90% or more, (practically complete withering)) | e (wheat) effect on crop grade [6]: 0 (weed kill ratio 5% or less (practically no effect)) | B (bulrush) weedkilling efficacy grade [7]: 5 (weed kill ratio 90% or more, (practically complete withering)) | F (barnyard grass) weedkilling efficacy grade [8]: 4 (weed kill ratio 70% or more, less than 90%) | E (green foxtail) weedkilling efficacy grade [9]: 5 (weed kill ratio 90% or more, (practically complete withering)) | O (catchweed) weedkilling efficacy grade [10]: 3 (weed kill ratio 40% or more, less than 70%) | G (wild oat) weedkilling efficacy grade [11]: 3 (weed kill ratio 40% or more, less than 70%) | K (Indian mallow) weedkilling efficacy grade [12]: 4 (weed kill ratio 70% or more, less than 90%) | H (black-grass) weedkilling efficacy grade [13]: 5 (weed kill ratio 90% or more, (practically complete withering)) | L (redroot pigweed) weedkilling efficacy grade [14]: 3 (weed kill ratio 40% or more, less than 70%) | M (fig-leafed goosefoot) weedkilling efficacy grade [15]: 3 (weed kill ratio 40% or more, less than 70%) | L (redroot pigweed) weedkilling efficacy grade [16]: 4 (weed kill ratio 70% or more, less than 90%) | E (green foxtail) weedkilling efficacy grade [17]: 5 (weed kill ratio 90% or more, (practically complete withering)) | b (directly sown rice) effect on crop grade [18]: 0 (weed kill ratio 5% or less (practically no effect)) | H (black-grass) weedkilling efficacy grade [19]: 3 (weed kill ratio 40% or more, less than 70%) | N (chickweed) weedkilling efficacy grade [20]: 3 (weed kill ratio 40% or more, less than 70%) | P (birds-eye speedwell) weedkilling efficacy grade [21]: 4 (weed kill ratio 70% or more, less than 90%) | I (Italian ryegrass) weedkilling efficacy grade [22]: 5 (weed kill ratio 90% or more, (practically complete withering)) | A (barnyard grass) weedkilling efficacy grade [23]: 5 (weed kill ratio 90% or more, (practically complete withering)) | f (beet) effect on crop grade [24]: 3 (weed kill ratio 40% or more, less than 70%) | g (rapeseed) effect on crop grade [25]: 3 (weed kill ratio 40% or more, less than 70%) | K (Indian mallow) weedkilling efficacy grade [26]: 1 (weed kill ratio 5% or more, less than 20%) | M (fig-leafed goosefoot) weedkilling efficacy grade [27]: 3 (weed kill ratio 40% or more, less than 70%) | d (soybean) effect on crop grade [28]: 3 (weed kill ratio 40% or more, less than 70%) | P (birds-eye speedwell) weedkilling efficacy grade [29]: 5 (weed kill ratio 90% or more, (practically complete withering)) | c (corn) effect on crop grade [30]: 0 (weed kill ratio 5% or less (practically no effect)) | G (wild oat) weedkilling efficacy grade [31]: 3 (weed kill ratio 40% or more, less than 70%) | f (beet) effect on crop grade [32]: 3 (weed kill ratio 40% or more, less than 70%) | F (barnyard grass) weedkilling efficacy grade [33]: 5 (weed kill ratio 90% or more, (practically complete withering)) | d (soybean) effect on crop grade [34]: 0 (weed kill ratio 5% or less (practically no effect)) | c (corn) effect on crop grade [35]: 3 (weed kill ratio 40% or more, less than 70%) | N (chickweed) weedkilling efficacy grade [36]: 4 (weed kill ratio 70% or more, less than 90%) | D (crabgrass) weedkilling efficacy grade [37]: 5 (weed kill ratio 90% or more, (practically complete withering)) | J (common wind-grass) weedkilling efficacy grade [38]: 5 (weed kill ratio 90% or more, (practically complete withering)) | A (barnyard grass) weedkilling efficacy grade [39]: 5 (weed kill ratio 90% or more, (practically complete withering)) | C (oval-leafed pondweed) weedkilling efficacy grade [40]: 5 (weed kill ratio 90% or more, (practically complete withering)) | J (common wind-grass) weedkilling efficacy grade [41]: 4 (weed kill ratio 70% or more, less than 90%) | b (directly sown rice) effect on crop grade [42]: 3 (weed kill ratio 40% or more, less than 70%) | e (wheat) effect on crop grade [43]: 0 (weed kill ratio 5% or less (practically no effect)) | g (rapeseed) effect on crop grade [44]: 3 (weed kill ratio 40% or more, less than 70%)
